These results are taken from patent US12708606B2 (UNIVERSITY OF GEORGIA RESEARCH FOUNDATION, INC., priority 2018, dated 2026).

In general, cell viability refers to a read-out of living cells in per cent, often relative to untreated cells. The low end stands for a greater loss of cells, the high end for better survival.

Series [1] deals with Sprague-Dawley rats with surgery-induced OA. In words: Macroscopic evaluation of cartilage lesions in rat ACLT OA model. It is filed as in vivo. The procedure:
In vivo analysis was performed in Sprague-Dawley rats which had undergone bilateral anterior cruciate ligament transection (ACTL) surgery. One month after the surgery, the animals were randomly sorted into six groups (n=24) and were i.a. injected once per week with the following regimens: SLFNP+HA (1.74 μg Li in 50 μL HA), SLFNP alone (1.74 μg Li in 50 μL PBS), LiCl+HA (3.48 μg Li in 50 μL HA), LiCl alone (3.48 μg in 50 μL PBS), HA alone (50 μL), and PBS (50 μL). For control, a sham-operated group was also studied.
Sprague Dawley Rats (SD rats) were obtained from Guangxi Medical University. […]
After 4 and 8 weeks of treatment, SD rats were sacrificed by intraperitoneal overdose of pentobarbital. […] The observers evaluated the depth of lesions of the articular cartilage on a scale of 0-4 (0=normal-appearing surface, 1=minimal fibrillation or a slight yellow discoloration of the surface, 2=erosion extending into the superficial or middle layers only, 3=erosion extending into the deep layers, and 4=erosion extending to the subchondral bone). The surface area of erosion was calculated with a digital caliper and presented them as mm2, with a higher score indicating greater cartilage damage.

Series [2] deals with IL-1β induced chondrocytes. The series is described as follows: Chondroprotective effect: CCK-8 viability of IL-1β induced chondrocytes. The series is classed as cell-based, rat. The following applies: LiCl 10 mM, IL-1β 10 ng/mL, 48 h. As to the method: The capacity of SLFNP was assessed to protect chondrocytes from deterioration induced by inflammatory cytokines. Chondrocytes were first incubated with SLFNP and then added to the medium 10 ng/mL interleukin-1-beta (IL-1β), a major inflammatory cytokine involved in chronic OA. For comparison, chondrocytes were treated with PBS or LiCl salt (10 mM) before adding IL-1β. In the PBS group, CCK-8 assay found a marked drop of cell viability (37.64% at 48 h). […]

Another series relates to IL6. The series is described as follows: qRT-PCR of IL6 in IL-1β stimulated chondrocytes. It is filed as cell-based, rat. The conditions noted are these: compared to IL-1β-stimulated cells. As to the method:
(§1) Cells were divided into nine groups: (1) Control: chondrocytes treated with SLFNP; (2) IL-1β: chondrocytes treated with 10 ng/mL IL-1β (Gibco, USA) and cultured for 2 days; (3) LiCl+IL-1β: chondrocytes pre-incubated with LiCl for 1 h followed by treatment with 10 ng/mL IL-1β for 2 days; (4) 1 mM SLFNP+IL-1β: chondrocytes pre-incubated with 1 mM SLFNP for 1 h followed by treatment with IL-1β for 2 days; (5) 5 mM SLFNP+IL-1β: chondrocytes pre-incubated with 5 mM SLFNP for 1 h followed by treatment with IL-1β for 2 days; (6) HA+IL-1β: condrocytes pre-incubated with 10 mg/mL HA for 1 h followed by treatment with IL-1β for 2 days; (7) HA+LiCl+IL-1β: chondrocytes pre-incubated with 10 mM LiCl and HA for 1 h followed by treatment with IL-1β for 2 days; (8) HA+1 mM SLFNP+IL-1β: chondrocytes pre-incubated with 1 mM SLFNP and HA for 1 h followed by treatment with IL-1β for 2 days; (9) HA+5 mM SLFNP+IL-1β: chondrocytes pre-incubated with 5 mM SLFNP and HA for 1 h followed by treatment with IL-1β for 2 days.
(§2) RNA was isolated from chondrocytes in all groups after 2 days of treatment using an RNA isolation kit (Tiangen Biotechnology). […]

The subject of a further series is COX-2. The series is described as follows: qRT-PCR of COX-2 in IL-1β stimulated chondrocytes. The series is classed as cell-based, rat. The conditions noted are these: compared to IL-1β-stimulated cells. As to the method: as §1, §2
Another series has as its system iNOS. In words: qRT-PCR of iNOS in IL-1β stimulated chondrocytes. The series is classed as cell-based, rat. The conditions noted are these: compared to IL-1β-stimulated cells. The procedure:
as §1, §2

The subject of another series is MMP3. In words: qRT-PCR of MMP3 in IL-1β stimulated chondrocytes. It is filed as cell-based, rat. The following applies: compared to IL-1β-stimulated cells. As to the method:
as §1, §2
In general terms: In qPCR the cycle at which signal appears reflects the starting amount.

A further series concerns ADAMTS5. In words: qRT-PCR of ADAMTS5 in IL-1β stimulated chondrocytes. The series is classed as cell-based, rat. The following applies: compared to IL-1β-stimulated cells. As to the method: as §1, §2
In the next series the test system is MMP-13. In words: Immunofluorescence staining of MMP-13 in IL-1β stimulated chondrocytes. The series is classed as cell-based, rat. The conditions noted are these: pre-incubation before IL-1β 10 ng/mL. As to the method:
as §1
After 2 days of culture, cells in the different treatment groups were washed twice with PBS, fixed in 4% formalin for 20 min, and permeabilized with 0.3% Triton X-100 (WN) in PBS for 10 min. After blocking with 5% BSA in PBS for 1 hour at room temperature, primary MMP-13 antibodies were added (1:200 dilution, Abcam, USA) and incubated at 4° C. overnight. […]

The subject of series [3] is IL-1β induced chondrocytes. The series is described as follows: Live/dead assay of IL-1β induced chondrocytes. It is filed as cell-based, rat. The following applies: vs PBS group, IL-1β 10 ng/mL. As to the method:
as §1
Cells were treated as the same procedures as described above. Live/dead assays were performed using a live/dead viability assay kit (Invitrogen, USA) after 2 days of culture. Briefly, cells were incubated in a solution containing […] of calcein AM and […] of ethidium homodimer-1 for 40 min at room temperature in the dark. […]

Series [4] has as its system Sprague-Dawley rats with surgery-induced OA. The series is described as follows: Histological evaluation (H&E, Safranin O-fast green, OARSI score) in rat ACLT OA model. The series is classed as in vivo. As to the method:
Sprague Dawley Rats (SD rats) were obtained from Guangxi Medical University. All experiments were conducted in accordance with the guidelines of the Animal Committee and with ethics approval from the Guangxi Medical University Animal Care and Use Committee, China (Protocol Number: 2015-11-27). A total of 152 male SD rats with a weight of 180±20 g were used. After anesthesia, 144 randomly selected rats underwent bilateral anterior cruciate ligament transection (ACLT) on the right knee joints to induce OA. Another 8 rats received sham operations (Sham group), in which the articular cavity was opened and sutured with the short anterior cruciate ligament intact. After surgery, all animals were returned to their cages, with the limbs not immobilized. One month after the surgery, the animals were randomly sorted into […] groups (n=24) and were i.a. injected once per week with the following regimens for 8 weeks: SLFNP+HA (1.74 μg Li in 50 μL 10 mg/mL HA), SLFNP alone (1.74 μg Li in […] PBS), LiCl+HA (3.48 μg Li in 50 μL 10 mg/mL HA), LiCl alone (3.48 μg in 50 μL PBS), HA alone (50 μL), and PBS (50 μL). In the sham groups, no other procedures were conducted. The animals in the six groups were sacrificed at 4 and 8 weeks after therapy (n=12). […]

For series [5] the following is noted: cited from earlier work.
For series [6] the following is noted: in vivo; cited from earlier work.

Consider `[Cl-].[Li+]` [LiCl, lithium chloride], for which the average lesion area turned out to be 8.5 mm2 in series [1] (Week 4, i.a. once per week) and 10.2 mm2 in [1] (Week 8, i.a. once per week). Further, the cell viability in series [2] came to 80.77%. In addition, the “reduction of mRNA level of IL6” value in the series on IL6 came to 54.94%. The “reduction of mRNA level of COX-2” value in the series on COX-2 is given as 68.29%. In the series with iNOS, the “reduction of mRNA level of iNOS” value worked out at 57.66%. Further, the “reduction of mRNA level of MMP3” value in the series on MMP3 turned out to be 57.45%. In addition, the “reduction of mRNA level of ADAMTSS” value with ADAMTS5 is reported as 59.77%. The “MMP13 expression (immunofluorescence)” value in the series with MMP-13 was “upregulation was attenuated”. Moreover, in series [3], the “positive ethidium homodimer-1 staining” value is on record as “significantly reduced level of positive staining”. The “reduction of OARSI score compared to the PBS control” value in series [4] (Week 4) is given as 19.28%; in series [4] (Week 8), 11.95%.

Consider `[Li]` [lithium], for which the “serum lithium toxicity threshold” value in series [5] is given as 1.5 mM.

Take hyaluronic acid [HA]: the “time for i.a. injected HA to fully degrade in the joint” value in series [6] is reported as ~ 60 h.
